In PMC10810434, “Thymoquinone-protoflavone hybrid molecules as potential antitumor agents” (PLOS ONE, 2024):
Read-outs that look alike come from different tables or passages of the source.

Tests used:
[1] = system: MCF-7; experiment: In vitro antiproliferative MTT assay on MCF-7; assay type: cell-based, human; details: mean of two independent measurements with three replicates each, read-out: Calculated IC50 ± SEM, MCF-7
Source text: (§1) Gynecological cancer cell lines of human origin including breast cancer like the triple negative MDA-MB-231 and estrogen receptor positive MCF-7, […] cervical adenocarcinoma (HeLa), and human glioblastoma (U-87) cell lines were used as in vitro models to study the antiproliferative effects of the evaluated compounds. All cell lines were cultivated in T-75 flasks in a minimal essential medium (MEM) supplemented with 10% heat-inactivated fetal bovine serum (FBS), 1% antibiotic-antimycotic mixture (penicillin-streptomycin-amphotericin B) and 1% non-essential amino acids. Non-cancerous human lung fibroblast cell line (MRC-5) was maintained in low glucose Dulbecco’s Modified Eagle Medium (DMEM) supplemented with 20% heat-inactivated FBS, 1% antibiotic-antimycotic mixture and 4 mM L-glutamine. The cells were incubated at 37°C in 5% CO^2 incubator. The cells were seeded in 96-well plates at a density of 5 x 10^3 in 100 μL per well, except for the U-87 and MRC-5 that were seeded at 1 x 10^4 density and incubated at the same conditions for overnight to allow the cells’ attachment to the well’s bottom before the treatment.
(§2) The compounds were dissolved in dimethyl sulfoxide (DMSO) as 10 mM standard stock solutions and kept at -20°C with minimum light exposure. Immediately before each experiment, the stock solution was used and diluted with a culture medium to get the final concentrations. The values of half-maximal inhibitory concentration (IC50) were determined by exposure of the cells into eight different concentrations of each tested compound (0.39, 0.78, 1.56, 3.125, 6.25, 12.5, 25 and 50 μM). Temozolomide (TMZ) and cisplatin were used as positive controls in the case of U-87 and the gynecological cell lines, respectively. The negative control wells included the cells with only MEM treatment. The plates were incubated for up to 72 hours under the same abovementioned incubation conditions. The colorimetric MTT assay was used to assess the compounds’ effect on cell proliferation. Briefly, 20 μL of MTT solution ([3-(4,5-dimethylthiazol-2-yl)-2,5-diphenyltetrazolium bromide], 5 mg/mL in PBS, Duchefa Biochemie BV, Haarlem, The Netherlands) was added to each well including the negative controls and kept under the usual incubation circumstances for additional four hours. Subsequently, the media was carefully aspirated and 100 μL of DMSO was added to each well and the plates were gently shaken for 30 min to solubilize the precipitated crystals of purple formazan. Absorbance was measured at a wavelength of 545 nm using a microplate UV-VIS reader (SPECTROstar Nano, BMG Labtech GmbH, Offenburg, Germany). The same procedure was performed using MRC-5 cells to determine the cancer selectivity of the most promising test compounds.
(§3) Cell viability data were collected from two separate experiments in triplicates and evaluated using GraphPad Prism 9.5.1 (GraphPad Software Inc., San Diego, CA, USA). The half-maximal inhibitory concentration (IC50) values were determined using the log inhibitor vs normalized response nonlinear regression model. Difference between the IC50 values of a hybrid and its corresponding fragments’ experimental combination was statistically evaluated using unpaired T-test. Cancer selectivity of the most promising test compounds was characterized by calculating and comparing their selectivity index (SI). The value of the parameter derives from the ratio of IC50 value of test compound on MRC-5 cells and that on U-87 cells. The higher the value, the better the cancer selectivity of the test compound.

[2] = system: U-87 glioblastoma cells; experiment: In vitro antiproliferative MTT assay on U-87; assay type: cell-based, human
Source text: as §1, §2, §3

[3] = system: HeLa; experiment: In vitro antiproliferative MTT assay on HeLa; assay type: cell-based, human; details: up to 72 hours, mean of two independent measurements with three replicates each, read-out: Calculated IC50 ± SEM, HeLa
Source text: as §1, §2, §3

[4] = system: MDA-MB-231; experiment: In vitro antiproliferative MTT assay on MDA-MB-231; assay type: cell-based, human; details: mean of two independent measurements with three replicates each, read-out: Calculated IC50 ± SEM, MDA-MB-231
Source text: as §1, §2, §3

[5] = system: MRC-5 non-cancerous human lung fibroblast cell line; experiment: In vitro antiproliferative MTT assay on MRC-5 (cancer selectivity); assay type: cell-based; details: for IC50: MRC5, Table 3, non-cancerous human lung fibroblasts, read-out: Calculated IC50 ± SEM, MRC-5; for Selectivity index SI = IC50 (MRC-5)/IC50 (U-87): MRC-5 vs U-87
Source text: as §1, §2, §3

[6] = Homo sapiens, MCF7, up to 72 hours
[7] = Homo sapiens, MTT, up to 72 hours, mean of two independent measurements with three replicates each, read-out: Calculated IC50 ± SEM, U-87
[8] = Homo sapiens, MDA-MB-231, up to 72 hours
[9] = Homo sapiens, Table 3, U-87 glioblastoma, read-out: Calculated IC50 ± SEM, U-87 (Table 3)

Row | SMILES | IC50 ([1]; up to 72 hours) | IC50 ([2]; MTT, up to 72 hours, mean of two independent measurements with three replicates each, read-out: Calculated IC50 ± SEM, U-87) | IC50 [3] | IC50 ([4]; up to 72 hours) | IC50 [1, 6] | IC50 [2, 7] | IC50 ([3]; Homo sapiens, HeLa) | IC50 [4, 8] | IC50 [2, 9] | IC50 [5] | Selectivity index SI = IC50 (MRC-5)/IC50 (U-87) [5]
1 | N.N.[Cl][Pt][Cl] [Cis, cisplatin, reference compound] | 6.55 ± 0.77 µM | 9.13 ± 1.79 µM | 16 ± 2 µM | 9.71 ± 0.51 µM | – | – | – | – | – | – | –
2 | CC1=CC(=O)C(C(C)C)=CC1=O [Compound 2, 2-isopropyl-5-methylcyclohexa-2,5-diene-1,4-dione] | – | – | – | – | 24 ± 1.37 µM | 39.1 ± 3.53 µM | > 100 µM | 7.02 ± 0.17 µM | – | – | –
3 | CC1=C(CCC(=O)O)C(=O)C(C(C)C)=CC1=O [Compound 3, 3-(5-isopropyl-2-methyl-3,6-dioxocyclohexa-1,4-dien-1-yl)propanoic acid] | – | – | – | – | > 100 µM | 77.7 ± 1.61 µM | > 100 µM | 38.2 ± 2.81 µM | – | – | –
4 | CC1=CC(=O)C(C(C)C)=C(CCC(=O)O)C1=O [Compound 4, 3-(2-isopropyl-5-methyl-3,6-dioxocyclohexa-1,4-dien-1-yl)propanoic acid] | – | – | – | – | > 100 µM | 88.7 ± 5.17 µM | > 100 µM | 12.4 ± 0.37 µM | 88.7 ± 5.17 µM | 40.2 ± 1.04 µM | –
5 | O=C1C=CC(O)(c2cc(=O)c3c(O)cc(O)cc3o2)C=C1 [Compound 6, Protoapigenone] | – | – | – | – | 0.66 ± 0.06 µM | 1.73 ± 0.11 µM | 1.8 ± 0.09 µM | 0.57 ± 0.07 µM | 1.73 ± 0.11 µM | 2.62 ± 0.2 µM | 1.51
6 | COC1(c2cc(=O)c3c(O)cc(O)cc3o2)C=CC(=O)C=C1 [Compound 7] | – | – | – | – | 3.95 ± 0.3 µM | 7.03 ± 0.11 µM | 5.51 ± 0.21 µM | 2.23 ± 0.13 µM | – | – | –
7 | CCOC1(c2cc(=O)c3c(O)cc(O)cc3o2)C=CC(=O)C=C1 [Compound 8] | – | – | – | – | 2.5 ± 0.11 µM | 1.73 ± 0.06 µM | 2.83 ± 0.12 µM | 1.22 ± 0.03 µM | 1.73 ± 0.06 µM | 3.79 ± 0.25 µM | 2.19
8 | CCCCOC1(c2cc(=O)c3c(O)cc(O)cc3o2)C=CC(=O)C=C1 [Compound 9] | – | – | – | – | 2.01 ± 0.07 µM | 1.5 ± 0.12 µM | 1.88 ± 0.1 µM | 0.82 ± 0.05 µM | 1.5 ± 0.12 µM | 3.56 ± 0.12 µM | 2.37
